Like-named read-outs stand apart in the source and are kept apart here.
Experiments:
[1] = target: T1, hERG (Homo sapiens, UniProt Q12809); experiment: hERG inhibition test (Predictor hERG Fluorescence Polarization assay kit); type: binding; details: probe kit Tracer (fluorescent hERG ligand), hERG % inhibition at 10 uM, relative to E-4031 and solvent control
T1 construct: purchased Invitrogen PV5365
Procedure: To measure the hERG (Human ether-a-go-go-related gene) channel inhibition rate of the compound according to the present invention, the following test was performed using a Predictor hERG Fluorescence Polarization assay kit (Invitrogen, PV5365).
Specifically, a test substance was dissolved in DMSO to prepare a 50 mM solution. A 4 mM solution was prepared by diluting the 50 mM solution with DMSO in a U bottom 96-well plate (SPL, 34096), and was then diluted 100-fold with a test buffer to prepare a 40 uM (4×) solution. The positive control E-4031 (3 mM) provided in the kit was diluted 25-fold with a test buffer to prepare a 120 uM solution) 5 uL of the diluted test substance solution was dispensed into a 384-well assay plate (corning, 3677). hERG Membrane (2×) and Tracer (4×) provided in the kit were respectively added at 10 uL and 5 uL, and then subjected to the reaction at room temperature for 2.5 hours. After completion of the reaction, fluorescence polarization (mP) was measured with a Multimode Plate Reader (Perkin-Elmer, Envision) (excitation wavelength of 531 nm, and emission wavelength 579 nm). The value of the percent inhibitory activity (% inhibition) at 10 uM of each test substance was calculated by the following equation, and the results are shown in Table 2: (% inhibition)=100−{(mP of the compound according to the present invention−E-4031 mP)/(mP of the solvent control−E-4031 mP)}×100

[2] = target: T2, human GLP-1 receptor (Homo sapiens, UniProt P43220); experiment: cAMP activity test (cAMP dynamic HTRF kit) in CHO-K1/GLP-1 receptor-expressing cells; type: cell-based
T2 construct: host or cells: CHO-K1
Procedure: The next day, the medium was removed, and a 50 uL of HBSS medium containing 0.1% BSA, 0.5 mM IBMX, and 5 mM HEPES was added to each well. […] The cAMP activity was measured according to the manufacturer's instructions using the cAMP dynamic HTRF kit (Cisbio, 62AM4PEC). After incubation, the medium was discarded, and the cells were lysed. cAMP-d2 and anti-cAMP cryptate conjugate were added thereto and reacted for 3 hours. […] Intracellular cAMP competes with cAMP-d2 for anti-cAMP cryptate, and the measured signal of fluorescence resonance energy transfer (FRET) is inversely proportional to intracellular cAMP.

[3] = cAMP activity, CHO-K1/GLP-1 receptor-expressing cells, read-out: EC50

T2 sequence (P43220 24-463): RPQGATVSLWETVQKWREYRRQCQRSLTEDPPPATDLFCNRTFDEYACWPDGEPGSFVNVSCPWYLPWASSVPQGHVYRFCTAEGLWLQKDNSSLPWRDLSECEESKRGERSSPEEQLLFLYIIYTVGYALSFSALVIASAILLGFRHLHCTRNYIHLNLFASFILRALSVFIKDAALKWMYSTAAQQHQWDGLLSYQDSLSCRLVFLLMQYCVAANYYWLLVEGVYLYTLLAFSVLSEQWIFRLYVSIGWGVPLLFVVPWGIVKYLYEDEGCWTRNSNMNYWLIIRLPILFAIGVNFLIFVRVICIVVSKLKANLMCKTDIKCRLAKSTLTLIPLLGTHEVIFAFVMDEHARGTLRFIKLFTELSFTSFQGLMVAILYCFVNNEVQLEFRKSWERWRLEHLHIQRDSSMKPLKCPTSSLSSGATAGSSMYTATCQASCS
T1 sequence (Q12809 whole entry): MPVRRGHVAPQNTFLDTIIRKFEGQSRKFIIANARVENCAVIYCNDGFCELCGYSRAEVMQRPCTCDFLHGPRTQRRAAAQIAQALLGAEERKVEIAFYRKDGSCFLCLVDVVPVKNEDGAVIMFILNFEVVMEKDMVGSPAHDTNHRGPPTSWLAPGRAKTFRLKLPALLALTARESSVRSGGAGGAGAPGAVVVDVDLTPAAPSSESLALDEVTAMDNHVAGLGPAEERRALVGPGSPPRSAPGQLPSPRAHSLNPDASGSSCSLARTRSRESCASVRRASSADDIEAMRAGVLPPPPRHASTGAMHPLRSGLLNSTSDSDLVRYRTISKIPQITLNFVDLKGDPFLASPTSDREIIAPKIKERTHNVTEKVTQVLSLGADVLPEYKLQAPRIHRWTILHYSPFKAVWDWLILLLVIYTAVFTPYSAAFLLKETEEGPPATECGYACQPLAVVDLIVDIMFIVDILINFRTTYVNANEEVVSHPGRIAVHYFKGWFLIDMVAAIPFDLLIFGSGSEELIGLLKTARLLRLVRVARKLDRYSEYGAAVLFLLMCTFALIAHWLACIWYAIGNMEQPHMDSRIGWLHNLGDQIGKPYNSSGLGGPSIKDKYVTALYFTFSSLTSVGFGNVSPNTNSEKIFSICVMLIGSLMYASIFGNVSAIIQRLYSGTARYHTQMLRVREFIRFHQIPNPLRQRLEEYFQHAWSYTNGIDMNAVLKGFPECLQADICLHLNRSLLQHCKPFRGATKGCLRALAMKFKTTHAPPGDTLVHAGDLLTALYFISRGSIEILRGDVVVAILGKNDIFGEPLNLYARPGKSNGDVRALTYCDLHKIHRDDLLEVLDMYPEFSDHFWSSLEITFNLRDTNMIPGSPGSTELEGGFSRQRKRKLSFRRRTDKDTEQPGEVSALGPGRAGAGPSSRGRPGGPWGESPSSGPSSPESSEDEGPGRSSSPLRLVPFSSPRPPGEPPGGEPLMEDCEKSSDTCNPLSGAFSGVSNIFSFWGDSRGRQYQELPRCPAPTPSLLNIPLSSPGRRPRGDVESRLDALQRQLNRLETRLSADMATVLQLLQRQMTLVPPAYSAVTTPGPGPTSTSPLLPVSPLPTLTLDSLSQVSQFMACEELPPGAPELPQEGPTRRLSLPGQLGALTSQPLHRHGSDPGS

SMILES | EC50 [2, 3] | EC50 [2] | inhibition at 2.5 h, 10 µM [1]
COc1cccc(COc2cccc(-c3ccc(Cc4nc5ccc(C(=O)O)cc5n4Cc4ccco4)nc3)c2)c1 [Example 23, 1-(furan-2-ylmethyl)-2-((5-(3-(3-methoxybenzyloxy)phenyl)pyridin-2-yl)methyl)-1H-benzo[d]imidazole-6-carboxylic acid] | 0.61 µM |  | -6.89%
O=C(O)c1ccc2nc(Cc3ccc(-c4cccc(OCc5ccc(Cl)cc5F)c4)cc3)n(CC3CCCO3)c2c1 (stereo not shown) [Example 24, 2-((3′-(4-chloro-2-fluorobenzyloxy)biphenyl-4-yl)methyl)-1-((tetrahydrofuran-2-yl)methyl)-1H-benzo[d]imidazole-6-carboxylic acid] | 0.13 µM |  | -7.68%
N#Cc1ccc(COc2cccc(-c3ccc(Cc4nc5ccc(C(=O)O)cc5n4Cc4ccco4)cc3)c2)c(F)c1 [Example 27, 2-((3′-(4-cyano-2-fluorobenzyloxy)biphenyl-4-yl)methyl)-1-(furan-2-ylmethyl)-1H-benzo[d]imidazole-6-carboxylic acid] | 0.27 µM |  | -4.76%
N#Cc1ccc(COc2cccc(-c3ccc(Cc4nc5ccc(C(=O)O)cc5n4Cc4ccco4)c(F)c3)c2)c(F)c1 [Example 28, 2-((3′-(4-cyano-2-fluorobenzyloxy)-3-fluorobiphenyl-4-yl)methyl)-1-(furan-2-ylmethyl)-1H-benzo[d]imidazole-6-carboxylic acid] | 0.13 µM |  | 0.52%
Cc1cc(Cc2nc3ccc(C(=O)O)cc3n2Cc2ccco2)ccc1-c1cccc(OCc2ccc(C#N)cc2F)n1 [Example 30, 2-(4-(6-(4-cyano-2-fluorobenzyloxy)pyridin-2-yl)-3-methylbenzyl)-1-(furan-2-ylmethyl)-1H-benzo[d]imidazole-6-carboxylic acid] | 0.46 µM |  | 0.33%
O=C(O)c1ccc2nc(Cc3ccc(-c4cccc(OCc5ccc(Cl)cc5F)c4)cc3F)n(Cc3cnco3)c2c1 [Example 32, 2-((3′-(4-chloro-2-fluorobenzyloxy)-3-fluorobiphenyl-4-yl)methyl)-1-(oxazol-5-ylmethyl)-1H-benzo[d]imidazole-6-carboxylic acid] | 0.032 µM |  | -11.7%
O=C(O)c1ccc2nc(Cc3ccc(-c4cccc(OCc5ccc(Cl)cc5F)c4)c(F)c3)n(Cc3cnco3)c2c1 [Example 33, 2-((3′-(4-chloro-2-fluorobenzyloxy)-2-fluorobiphenyl-4-yl)methyl)-1-(oxazol-5-ylmethyl)-1H-benzo[d]imidazole-6-carboxylic acid] | 0.06 µM |  | -9.08%
O=C(O)c1ccc2nc(Cc3ccc(-c4cccc(OCc5ccc(Cl)cc5F)n4)cc3F)n(Cc3cnco3)c2c1 [Example 34, 2-(4-(6-(4-chloro-2-fluorobenzyloxy)pyridin-2-yl)-2-fluorobenzyl)-1-(oxazol-5-ylmethyl)-1H-benzo[d]imidazole-6-carboxylic acid] | 0.0092 µM |  | -12.6%
O=C(O)c1ccc2nc(Cc3ccc(-c4cccc(OCc5ccc(Cl)cc5F)n4)c(F)c3)n(Cc3cnco3)c2c1 [Example 35, 2-(4-(6-(4-chloro-2-fluorobenzyloxy)pyridin-2-yl)-3-fluorobenzyl)-1-(oxazol-5-ylmethyl)-1H-benzo[d]imidazole-6-carboxylic acid] | 0.009 µM |  | -3.82%
COCCn1c(Cc2c(F)cc(-c3cccc(OCc4ccc(Cl)cc4F)n3)cc2F)nc2ccc(C(=O)O)cc21 [Example 37, 2-(4-(6-(4-chloro-2-fluorobenzyloxy)pyridin-2-yl)-2,6-difluorobenzyl)-1-(2-methoxyethyl)-1H-benzo[d]imidazole-6-carboxylic acid] | 0.013 µM |  | -10.6%
O=C(O)c1ccc2nc(Cc3ccc(-c4cccc(OCc5ccc(Cl)cc5F)c4)cc3F)n(C[C@H]3CCCO3)c2c1 [Example 41, (R)-2-((3′-(4-chloro-2-fluorobenzyloxy)-3-fluorobiphenyl-4-yl)methyl)-1-((tetrahydrofuran-2-yl)methyl)-1H-benzo[d]imidazole-6-carboxylic acid] | 0.11 µM |  | -16%
O=C(O)c1ccc2nc(Cc3ccc(-c4cccc(OCc5ccc(Cl)cc5F)n4)cc3F)n(CCF)c2c1 [Example 43, 2-(4-(6-(4-chloro-2-fluorobenzyloxy)pyridin-2-yl)-2-fluorobenzyl)-1-(2-fluoroethyl)-1H-benzo[d]imidazole-6-carboxylic acid] | 0.072 µM |  | -2.26%

Second part, led by results:

EC50 [2, 3] | EC50 [2] | SMILES | inhibition at 2.5 h, 10 µM [1]
0.24 µM |  | COCCn1c(Cc2ccc(-c3cccc(OCc4ccc(C#N)cc4F)n3)cc2)nc2ccc(C(=O)O)cc21 [Example 20, 2-(4-(6-(4-cyano-2-fluorobenzyloxy)pyridin-2-yl)benzyl)-1-(2-methoxyethyl)-1H-benzo[d]imidazole-6-carboxylic acid] | 6.19%
0.42 µM |  | COCCn1c(Cc2ccc(-c3cccc(OCc4ccc(C#N)cc4F)c3)cc2)nc2ccc(C(=O)O)cc21 [Example 21, 2-((3′-(4-cyano-2-fluorobenzyloxy)biphenyl-4-yl)methyl)-1-(2-methoxyethyl)-1H-benzo[d]imidazole-6-carboxylic acid] | -9.94%
0.13 µM |  | COCCn1c(Cc2ccc(-c3cccc(OCc4ccc(Cl)cc4F)c3)cc2)nc2ccc(C(=O)O)cc21 [Example 22, 2-((3′-(4-chloro-2-fluorobenzyloxy)biphenyl-4-yl)methyl)-1-(2-methoxyethyl)-1H-benzo[d]imidazole-6-carboxylic acid] | -15.5%
0.043 µM |  | COCCn1c(Cc2ccc(-c3cccc(OCc4ccc(C#N)cc4F)n3)cc2F)nc2ccc(C(=O)O)cc21 [Example 25, 2-(4-(6-(4-cyano-2-fluorobenzyloxy)pyridin-2-yl)-2-fluorobenzyl)-1-(2-methoxyethyl)-1H-benzo[d]imidazole-6-carboxylic acid] | 18.9%
0.27 µM |  | COCCn1c(Cc2ccc(-c3cccc(OCc4ccc(C#N)cc4F)c3)cc2F)nc2ccc(C(=O)O)cc21 [Example 26, 2-((3′-(4-cyano-2-fluorobenzyloxy)-3-fluorobiphenyl-4-yl)methyl)-1-(2-methoxyethyl)-1H-benzo[d]imidazole-6-carboxylic acid] | 2.43%
0.9 µM |  | Cc1cc(Cc2nc3ccc(C(=O)O)cc3n2Cc2ccco2)ccc1-c1cccc(OCc2ccc(C#N)cc2F)c1 [Example 29, 2-((3′-(4-cyano-2-fluorobenzyloxy)-2-methylbiphenyl-4-yl)methyl)-1-(furan-2-ylmethyl)-1H-benzo[d]imidazole-6-carboxylic acid] | -0.75%
0.088 µM |  | COCCn1c(Cc2ccc(-c3cccc(OCc4ccc(Cl)cc4F)c3)cc2F)nc2ccc(C(=O)O)cc21 [Example 36, 2-((3′-(4-chloro-2-fluorobenzyloxy)-3-fluorobiphenyl-4-yl)methyl)-1-(2-methoxyethyl)-1H-benzo[d]imidazole-6-carboxylic acid] | -10.8%
 | 0.14 µM | COCCn1c(Cc2ccc(-c3cccc(OCc4ccc(C#N)cc4F)n3)c(F)c2)nc2ccc(C(=O)O)cc21 [Example 38, 2-(4-(6-(4-cyano-2-fluorobenzyloxy)pyridin-2-yl)-3-fluorobenzyl)-1-(2-methoxyethyl)-1H-benzo[d]imidazole-6-carboxylic acid] | 9.5%
0.25 µM |  | COCCn1c(Cc2ccc(-c3cccc(OCc4ccc(Cl)cc4F)c3)c(F)c2)nc2ccc(C(=O)O)cc21 [Example 39, 2-((3′-(4-chloro-2-fluorobenzyloxy)-2-fluorobiphenyl-4-yl)methyl)-1-(2-methoxyethyl)-1H-benzo[d]imidazole-6-carboxylic acid] | -12.8%
0.26 µM |  | COCCn1c(Cc2ccc(-c3cccc(OCc4ccc(C#N)cc4F)c3)c(F)c2)nc2ccc(C(=O)O)cc21 [Example 40, 2-((3′-(4-cyano-2-fluorobenzyloxy)-2-fluorobiphenyl-4-yl)methyl)-1-(2-methoxyethyl)-1H-benzo[d]imidazole-6-carboxylic acid] | 6.91%
0.25 µM |  | O=C(O)c1ccc2nc(Cc3ccc(-c4cccc(OCc5ccc(Cl)cc5F)c4)c(F)c3)n(C[C@H]3CCCO3)c2c1 [Example 42, (R)-2-((3′-(4-chloro-2-fluorobenzyloxy)-2-fluorobiphenyl-4-yl)methyl)-1-((tetrahydrofuran-2-yl)methyl)-1H-benzo[d]imidazole-6-carboxylic acid] | -23.6%
